# What was measured:
# triglyceride in liver = assay: Action for decreasing triglyceride in liver (ethanol-induced); type: in vivo, Sprague Dawley strain female rats; details: Rattus norvegicus, po, 24 h, oral 100 mg/kg, 30 min before ethanol 6 g/kg, read-out: % Prevention (of increase in triglyceride content in the liver)
# Method: Sprague Dawley strain female rats each weighing 170 - 200 g which had been fasted for 15 hours were divided into groups of 4 rats each. The rats were orally administered a different test compound in a dose of 100 mg/kg, and 30 minutes after the administration, orally administered ethanol in a dose of 6 g/kg. Twenty-four hours after the administration of ethanol, the liver of each rat was taken out and neutral lipid level in the liver was measured in a conventional manner to calculate the ratio of preventing an increase in triglyceride content in the liver. For a control group, ethanol and, for the other control group, a glucose aqueous solution equivalent in calorific value to the same amount of ethanol were used and the same manner as those of test groups, and for the positive control group, commercially available 2-mercaptopropionylglycine was used instead of the test compound.
# *The % prevention was calculated by the following
# [1] = system: Pseudomonas aeruginosa Pa-II; assay: Activity for Protecting from Infection by Bucillus Pyocyaneous, with carbenicillin; type: in vivo; details: mouse, test compound (combination arm) 2 mg/head oral; for Number of Survival Animals/Number of Tested Animals: 54 hours
# Method: As test animals, ddY strain male mice (5 week old) which were divided into groups of 9 members each were used. Each mouse was intraperitoneally administered with 10^6 Pseudomonas aeruginosa Pa-II, and 1.5 hours after the administeration, subcutaneously administered one shot of carbenicillin, an antibiotic. The test compound, disodium salt of N-2'-carboxyphenyl-4-chloroanthranilic acid, was orally administered once a day in a dose of 2 mg/head one and two days before the inoculation, respectively. The activity of the test compound was evaluated by observing the test animals for 54 hours after the inoculation.
# [2] = system: plaque forming cells (PFC) in the spleen; assay: Activity for Recovering Immune Depletion by cortisone: plaque forming cells (PFC) in the spleen; type: in vivo, IV CS strain male mice; details: cortisone 60 mg/kg i.p. alone
# Method: As test animals, IV CS strain male mice (5 week old) were used by dividing them into groups of 5 members each. Each mouse was intraperitoneally administered with cortisone in a dose of 60 mg/kg once a day for 5 days. Three days after the first administration, the sensitization with an antigen, sheep red blood cell (SRBC), was made by injecting the antigen into the mouse through the tail vein. Each mouse was orally administered with the test compound, disodium salt of N-2'-carboxyphenyl-4-chloroanthranilic acid, a day after the sensitization. Five days after the sensitization, the number of plaque forming cells (PFC) in the spleen was measured in a usual manner.
# [3] = system: concentration of BSP in blood; assay: Bromosulfophthalein (BSP) Test; type: in vivo, Sprague Dawley strain female rats; details: rat, oral 100 mg/kg; BSP 28 mg/head i.v.; 30 min after; ** P<0.01
# Method: Sprague Dawley strain female rats each weighing 150 - 190 g which had been fasted for 15 hours were divided into groups of 4 rats each. The rats were orally administered a different test compound in a dose of 100 mg/kg, and 60 minutes after the administration, each of the rats was injected through the tail vein with 28 mg/head of BSP. Thirty minutes after the injection, the blood of each rat was sampled from the heart and the concentration of BSP was determined in a conventional colorimetric manner. As control, a physiological saline solution was orally administered instead of the test compound.
# [4] = system: concentration of ICG in the blood; assay: Indocyanogree (ICG) Test; type: in vivo, Sprague Dawley strain male rats; details: rat, oral 100 mg/kg; ICG 2 mg/head i.v.; 15 min after; ** P<0.02
# Method: Sprague Dawley strain male rats weighing 180 - 210 g which had been fasted for 15 hours were divided into groups of 4 rats each. The rats were orally administered a different test compound in a dose of 100 mg/kg, and 60 minutes after the administration, each of the rats was injected through the tail vein with 2 mg/head of ICG. Fifteen minutes after the injection, the blood of each rat was sampled from the heart and the concentration of ICG in the blood was determined in a conventional colorimetric manner. As control, a physiological saline solution was used.
# [5] = system: concentration of bilirubin in the blood; assay: Bilirubin Excretion Activity; type: in vivo, Sprague Dawley strain female rats; details: rat, oral 100 mg/kg; bilirubin i.v.; 20 min after; ** P<0.02
# Method: Sprague Dawley strain female rats each weighing 160 - 200 g which had been fasted for 15 hours were divided into groups of 6 rats each. The rats were orally administered with a different test compound in a dose of 100 mg/kg, and 60 minutes after the administration, each of the rats was injected through the tail vein with […] of bilirubin. Twenty minutes after the injection, the blood of each rat was sampled from the heart and the concentration of bilirubin in the blood was determined in a conventional manner.
# As control, a physiological saline solution was used instead of the test compound.
# plaque forming cells = assay: Increase in Number of Plaque Forming Cells after sensitization with SRBC (Jerne's plaque method); type: in vivo, Sprague Dawley strain male rats
# Method: (§1) Sprague Dawley strain male rats weighing 200 - 220 g which were divided into 7 groups of 5 or 6 rats each were used as test animals.
# (§2) The six groups were orally administered by one shot with the test compound, N-2'-carboxyphenyl-4-chloroanthranilic acid in a dose of 100 mg/kg on six different days, a day before the sensitization, on the date, a day after, two days after, three days after and four days after the sensitization with an antigen (SRBC: Sheep red blood cell). The SRBC was intraveneously injected in the rat through the tail vein in an amount of 1 ml as a 2% aqueous suspension. For control groups, a physiological saline solution was used in the same amount and in the same manner as those of the test groups on the day of sensitization.
# (§3) Five days after the sensitization, the rats were sacrificed and the spleen of each of the rats was taken out and the blood was sampled.
# (§4) The number of plaque forming cells and titers in blood were determined by the Jerne's plaque method and a hemolysing method, respectively.
# antibody in blood = assay: Titer of Antibody in Blood after sensitization with SRBC (hemolysing method); type: in vivo, Sprague Dawley strain male rats; details: administered on the day and a day after the sensitization with SRBC
# Method: as §1, §2, §3, §4
# Acute Toxicity = assay: Acute Toxicity; parameters: species or system Wistar-Imamichi strain male and female rats; details: rat, in vivo, po, suspension in 5% gum arabi
# Method: Acute toxicity of N-2'-carboxyphenyl-4-chloroanthranilic acid was determined using Wistar-Imamichi strain male and female rats (11 week old) as test animals. The test compound was orally administered as a suspension in a 5% gum arabi aqueous solution.
structure (smiles),measurement,setting,value
"CC(S)C(=O)NCC(=O)O (stereo not shown) [2-mercaptopropionylglycine, reference compound]",inhibition in vivo at 100 mg/kg,triglyceride in liver,9.3%
"CC1(C)S[C@@H]2[C@H](NC(=O)C(C(=O)O)c3ccccc3)C(=O)N2[C@H]1C(=O)O (stereo partly shown) [Carbenicillin, carbenicillin]",Number of Survival Animals/Number of Tested Animals,[1]; Carbenicillin 10 mg/head s.c.,0/9
same,Number of Survival Animals/Number of Tested Animals,[1]; Carbenicillin 20 mg/head s.c.,2/9
same,Number of Survival Animals/Number of Tested Animals,[1]; Carbenicillin 40 mg/head s.c.,9/9
same,ED50 (dose of carbenicillin),[1]; 10^6 Pseudomonas aeruginosa Pa-II i.p.,24.1 mg/head
"C[C@]12CCC(=O)C=C1CC[C@@H]1[C@@H]2C(=O)C[C@@]2(C)[C@H]1CC[C@]2(O)C(=O)CO [Cortisone, cortisone, reference compound]",number of PFC per spleen vs control without cortisone,[2],reduced to one third
"Cc1ccc(C)c(C(=O)O)c1Nc1cc(Cl)ccc1C(=O)O [N-2'-carboxy-3',6'-dimethylphenyl-4-chloroanthranilic acid]",inhibition in vivo at 100 mg/kg,triglyceride in liver,45.8%
Cc1ccc(Nc2cc(Cl)ccc2C(=O)O)c(C(=O)O)c1 [N-2'-carboxy-4'-methylphenyl-4-chloroanthranilic acid],inhibition in vivo at 100 mg/kg,triglyceride in liver,53.2%
O=C(O)c1ccc(Cl)cc1Nc1cc(Cl)ccc1C(=O)O [N-2'-carboxy-5'-chlorophenyl-4-chloroanthranilic acid],inhibition in vivo at 100 mg/kg,triglyceride in liver,57.2%
Cc1cccc(C(=O)O)c1Nc1cc(Cl)ccc1C(=O)O [N-2'-carboxy-6'-methylphenyl-4-chloroanthranilic acid],inhibition in vivo at 100 mg/kg,triglyceride in liver,25.2%
Cc1c(Cl)ccc(C(=O)O)c1Nc1ccccc1C(=O)O [N-2'-carboxyphenyl-4-chloro-3-methylanthranilic acid],inhibition in vivo at 100 mg/kg,triglyceride in liver,40.5%
O=C(O)c1ccccc1Nc1cc(Cl)ccc1C(=O)O [N-2'-carboxyphenyl-4-chloroanthranilic acid],inhibition in vivo at 100 mg/kg,triglyceride in liver,67.1%
same,% Remain of BSP,[3],17.3±8.4%
same,% Remain of ICG,[4],5.1 ± 0.2%
same,% Remain of Bilirubin,[5],39.7 ± 13.3%
same,Number of plaque forming cell/10^6 cells,"plaque forming cells; 100 mg/kg oral, day 0 based on the sensitization, P<0.01",193.4 ± 26.6 cell/10^6 cells
same,Number of plaque forming cell/10^6 cells,"plaque forming cells; 100 mg/kg oral, day +1 based on the sensitization, P<0.01",316.8 ± 38.2 cell/10^6 cells
same,Number of plaque forming cell/10^6 cells,"plaque forming cells; 100 mg/kg oral, day +2 based on the sensitization",76.5 ± 16.3 cell/10^6 cells
same,Number of plaque forming cell/10^6 cells,"plaque forming cells; 100 mg/kg oral, day +3 based on the sensitization",101.0 ± 11.2 cell/10^6 cells
same,Number of plaque forming cell/10^6 cells,"plaque forming cells; 100 mg/kg oral, day +4 based on the sensitization",95.5 ± 35.3 cell/10^6 cells
same,Number of plaque forming cell/10^6 cells,"plaque forming cells; 100 mg/kg oral, day -1 based on the sensitization, control 49.7 ± 16.0",93.2 ± 28.6 cell/10^6 cells
same,increase in number of plaque forming cells relative to control group,"plaque forming cells; 100 mg/kg oral, maximum vs control",about six times as much as the value of the control group
same,increase in the number of plaque forming cells,plaque forming cells; administered on the date and a day after the sensitization,significant increase
same,increase in titers in blood,antibody in blood,significant increase
same,LD50,Acute Toxicity; female rat,2600 mg/kg
same,LD50,Acute Toxicity; male rat,2100 mg/kg
O=C(O)c1ccccc1Nc1ccc(Cl)cc1C(=O)O [N-2'-carboxyphenyl-5-chloroanthranilic acid],inhibition in vivo at 100 mg/kg,triglyceride in liver,30%
Cc1ccc(Nc2ccccc2C(=O)O)c(C(=O)O)c1 [N-2'-carboxyphenyl-5-methylanthranilic acid],inhibition in vivo at 100 mg/kg,triglyceride in liver,20.1%

# From US4092426A, “Novel aminobenzoic acid derivatives, process for preparing the same and pharmaceutical composition containing the same” (Chugai Seiyaku Kabushiki Kaisha, priority 1975, dated 1978)
